Experimental data from PubChem BioAssay AID282 (DTP/NCI, 2004).
“And” between values parts separate entries of the source, which are not always exact repeats. Equal values may be shown once. Inconclusive results and toxic doses are left out. How the source made its calls: active means survival T/C of 150% or more; inactive means T/C below 125% in these data.

Tested on: BDF1 mice, L1210 terephthalanilide-resistant leukemia ip, survival T/C
Assay: NCI In Vivo Anticancer Drug Screen. Data for tumor model L1210 Leukemia resistant to A Terephthalanilide; NSC 38280 (intraperitoneal) in B6D2F1 (BDF1) mice
Conditions: endpoint: mean survival time, higher = longer survival
Experimental: The antitumor activity of compounds was measured in mice bearing transplantable tumors. Survival or tumor size were measured and the results are expressed as the measurement made in the treated group (T) divided by the measurement made in the vehicle treated control group (C). The tumor model used in this assay is L1210 Leukemia resistant to A Terephthalanilide; NSC 38280 (intraperitoneal) in B6D2F1 (BDF1) mice

[1] = dose: 10.0 mg/kg/injection, schedule: Q01DX Z (ip), vehicle: saline
[2] = dose: 50.0 mg/kg/injection, schedule: Q01DX Z (ip), vehicle: saline
[3] = dose: 25.0 mg/kg/injection, schedule: Q01DX010 (ip), vehicle: saline
[4] = dose: 50.0 mg/kg/injection, schedule: Q01DX010 (ip), vehicle: saline
[5] = dose: 100.0 mg/kg/injection, schedule: Q01DX010 (ip), vehicle: saline
[6] = dose: 10.0 mg/kg/injection, schedule: Q01DX Z (ip), vehicle: carboxymethylcellulose (CMC)
[7] = dose: 12.5 mg/kg/injection, schedule: Q01DX010 (ip), vehicle: saline
[8] = dose: 150.0 mg/kg/injection, schedule: Q01DX Z (ip), vehicle: carboxymethylcellulose (CMC)
[9] = dose: 25.0 mg/kg/injection, schedule: Q01DX Z (ip), vehicle: carboxymethylcellulose (CMC)
[10] = dose: 30.0 mg/kg/injection, schedule: Q01DX010 (ip), vehicle: saline
[11] = dose: 60.0 mg/kg/injection, schedule: Q01DX010 (ip), vehicle: saline
[12] = dose: 125.0 mg/kg/injection, schedule: Q01DX010 (ip), vehicle: saline
[13] = dose: 250.0 mg/kg/injection, schedule: Q01DX010 (ip), vehicle: saline
[14] = dose: 37.5 mg/kg/injection, schedule: Q01DX Z (ip), vehicle: carboxymethylcellulose (CMC)
[15] = dose: 250.0 mg/kg/injection, schedule: Q01DX Z (ip), vehicle: saline
[16] = dose: 375.0 mg/kg/injection, schedule: Q01DX Z (ip), vehicle: saline
[17] = dose: 500.0 mg/kg/injection, schedule: Q01DX Z (ip), vehicle: saline

Measured: T/C

N#[N+]c1cnc([O-])[nH]c1=O
inactive: dose: 1.25 mg/kg/injection, schedule: Q01DX010 (ip), vehicle: saline 110 % of control | dose: 2.5 mg/kg/injection, schedule: Q01DX Z (ip), vehicle: alkali diluted with saline 102 % of control | dose: 5.0 mg/kg/injection, schedule: Q01DX Z (ip), vehicle: alkali diluted with saline 102 % of control | dose: 7.5 mg/kg/injection, schedule: Q01DX Z (ip), vehicle: alkali diluted with saline 106 % of control | dose: 15.0 mg/kg/injection, schedule: Q01DX Z (ip), vehicle: alkali diluted with saline 108 % of control | dose: 20.0 mg/kg/injection, schedule: Q01DX Z (ip), vehicle: saline 96 % of control
active: [1] 172 % of control

O=P1(N(CCCl)CCCl)NCCCO1 (configuration not stated)
active: dose: 25.0 mg/kg/injection, schedule: Q01DX Z (ip), vehicle: saline 160 % of control | dose: 37.5 mg/kg/injection, schedule: Q01DX Z (ip), vehicle: saline 200 % of control | [2] 166 % of control and 239 % of control
inactive: dose: 5.0 mg/kg/injection, schedule: Q01DX Z (ip), vehicle: saline 102 % of control | [1] 124 % of control | dose: 15.0 mg/kg/injection, schedule: Q01DX Z (ip), vehicle: saline 122 % of control | dose: 75.0 mg/kg/injection, schedule: Q01DX Z (ip), vehicle: saline 102 % of control | dose: 200.0 mg/kg/injection, schedule: Q01DX Z (ip), vehicle: saline 100 % of control

CCN(CC)CCNc1ccc(C)c2sc3ccccc3c(=O)c12
inactive: [3] 101 % of control and 105 % of control | dose: 25.0 mg/kg/injection, schedule: Q01DX Z (ip), vehicle: water 111 % of control | [4] 105 % of control and 111 % of control | [5] 111 % of control | dose: 100.0 mg/kg/injection, schedule: Q01DX Z (ip), vehicle: water 115 % of control

COc1cc(-c2ccc(Nc3ccccc3C(=O)O)c(OC)c2)ccc1Nc1ccccc1C(=O)O
active: dose: 67.0 mg/kg/injection, schedule: Q01DX010 (ip), vehicle: saline 150 % of control and 159 % of control

CC(=O)Nc1ccc2nc3ccc(NC(C)=O)cc3[n+](-c3ccccc3)c2c1
inactive: [6] 108 % of control | [7] 107 % of control | dose: 20.0 mg/kg/injection, schedule: Q01DX Z (ip), vehicle: carboxymethylcellulose (CMC) 117 % of control | [3] 109 % of control and 110 % of control | [4] 121 % of control and 104 % of control | [5] 106 % of control and 112 % of control | [8] 121 % of control | dose: 300.0 mg/kg/injection, schedule: Q01DX Z (ip), vehicle: carboxymethylcellulose (CMC) 120 % of control | dose: 400.0 mg/kg/injection, schedule: Q01DX Z (ip), vehicle: carboxymethylcellulose (CMC) 91 % of control

N#CCSc1ncnc2nc[nH]c12
inactive: [9] 122 % of control | [10] 112 % of control and 113 % of control | [11] 109 % of control and 115 % of control | dose: 120.0 mg/kg/injection, schedule: Q01DX010 (ip), vehicle: saline 91 % of control
active: dose: 100.0 mg/kg/injection, schedule: Q01DX Z (ip), vehicle: carboxymethylcellulose (CMC) 150 % of control

CS(=O)(=O)OCCN(CCOS(C)(=O)=O)c1ccc(N=O)cc1
inactive: dose: 0.5 mg/kg/injection, schedule: Q01DX010 (ip), vehicle: saline 122 % of control | dose: 1.0 mg/kg/injection, schedule: Q01DX010 (ip), vehicle: saline 115 % of control | dose: 2.0 mg/kg/injection, schedule: Q01DX010 (ip), vehicle: saline 98 % of control | dose: 125.0 micrograms/kg/injection, schedule: Q01DX010 (ip), vehicle: saline 118 % of control | dose: 1000.0 micrograms/kg/injection, schedule: Q01DX010 (ip), vehicle: saline 116 % of control

c1ccc(CCSc2ncnc3nc[nH]c23)cc1
inactive: dose: 62.5 mg/kg/injection, schedule: Q01DX010 (ip), vehicle: saline 90 % of control | [12] 104 % of control | [13] 99 % of control

N=[N+]=CC(=O)OCC(N)C(=O)O (configuration not stated)
inactive: dose: 1.0 mg/kg/injection, schedule: Q01DX Z (ip), vehicle: carboxymethylcellulose (CMC) 122 % of control | [7] 118 % of control | [3] 97 % of control | dose: 30.0 mg/kg/injection, schedule: Q01DX Z (ip), vehicle: carboxymethylcellulose (CMC) 115 % of control
active: dose: 3.75 mg/kg/injection, schedule: Q01DX Z (ip), vehicle: carboxymethylcellulose (CMC) 168 % of control | dose: 5.0 mg/kg/injection, schedule: Q01DX Z (ip), vehicle: carboxymethylcellulose (CMC) 171 % of control | dose: 6.25 mg/kg/injection, schedule: Q01DX010 (ip), vehicle: saline 156 % of control | dose: 7.5 mg/kg/injection, schedule: Q01DX Z (ip), vehicle: carboxymethylcellulose (CMC) 183 % of control | [6] 174 % of control

c1ccc(CNc2ncnc3[nH]ncc23)cc1
inactive: dose: 8.0 mg/kg/injection, schedule: Q01DX010 (ip), vehicle: saline 102 % of control and 107 % of control | dose: 12.5 mg/kg/injection, schedule: Q01DX Z (ip), vehicle: carboxymethylcellulose (CMC) 97 % of control | dose: 16.0 mg/kg/injection, schedule: Q01DX010 (ip), vehicle: saline 103 % of control and 114 % of control | [9] 109 % of control | dose: 32.0 mg/kg/injection, schedule: Q01DX010 (ip), vehicle: saline 107 % of control | [14] 116 % of control | dose: 50.0 mg/kg/injection, schedule: Q01DX Z (ip), vehicle: carboxymethylcellulose (CMC) 97 % of control | dose: 64.0 mg/kg/injection, schedule: Q01DX010 (ip), vehicle: saline 99 % of control and 103 % of control

O=CN(O)CC(=O)O
inactive: [12] 93 % of control | dose: 125.0 mg/kg/injection, schedule: Q01DX Z (ip), vehicle: saline 100 % of control | [13] 93 % of control | [15] 91 % of control | [16] 101 % of control | dose: 500.0 mg/kg/injection, schedule: Q01DX010 (ip), vehicle: saline 101 % of control | [17] 97 % of control

Clc1ccc(C(c2ccccc2Cl)C(Cl)Cl)cc1 (configuration not stated)
inactive: dose: 62.5 mg/kg/injection, schedule: Q01DX Z (sc), vehicle: steriod suspending solution 102 % of control | dose: 125.0 mg/kg/injection, schedule: Q01DX Z (sc), vehicle: steriod suspending solution 104 % of control | dose: 250.0 mg/kg/injection, schedule: Q01DX Z (sc), vehicle: steriod suspending solution 93 % of control | dose: 500.0 mg/kg/injection, schedule: Q01DX Z (sc), vehicle: steriod suspending solution 102 % of control | dose: 750.0 mg/kg/injection, schedule: Q01DX Z (sc), vehicle: steriod suspending solution 100 % of control | dose: 1000.0 mg/kg/injection, schedule: Q01DX Z (sc), vehicle: steriod suspending solution 95 % of control | dose: 1200.0 mg/kg/injection, schedule: Q01DX Z (sc), vehicle: steriod suspending solution 94 % of control | dose: 1500.0 mg/kg/injection, schedule: Q01DX Z (sc), vehicle: steriod suspending solution 91 % of control

O=c1cnn(C2OC(CO)C(O)C2O)c(=O)[nH]1 (configuration not stated)
active: [2] 172 % of control | dose: 100.0 mg/kg/injection, schedule: Q01DX Z (ip), vehicle: saline 164 % of control | dose: 187.0 mg/kg/injection, schedule: Q01DX Z (ip), vehicle: saline 181 % of control | [15] 224 % of control | [16] 218 % of control | [17] 225 % of control | dose: 750.0 mg/kg/injection, schedule: Q01DX Z (ip), vehicle: saline 222 % of control | dose: 800.0 mg/kg/injection, schedule: Q01DX010 (ip), vehicle: saline 167 % of control | dose: 1000.0 mg/kg/injection, schedule: Q01DX Z (ip), vehicle: saline 182 % of control
inactive: dose: 1600.0 mg/kg/injection, schedule: Q01DX010 (ip), vehicle: saline 86 % of control

Clc1ncnc2nc[nH]c12
active: [8] 150 % of control
inactive: dose: 7.5 mg/kg/injection, schedule: Q01DX010 (ip), vehicle: saline 94 % of control and 102 % of control | dose: 15.0 mg/kg/injection, schedule: Q01DX010 (ip), vehicle: saline 96 % of control and 105 % of control | [10] 120 % of control and 105 % of control | [14] 115 % of control | [11] 123 % of control and 110 % of control | dose: 75.0 mg/kg/injection, schedule: Q01DX Z (ip), vehicle: carboxymethylcellulose (CMC) 114 % of control
